# Test results published in the supplement of paper PMC10307832.
# Key:
# Assay in all cases: relative viability (nuclei count vs DMSO), 5 days (fraction); higher = more cells survive
# [1] = system: BEN
# Procedure, shortened: (§1)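 The day after seeding in 1536-well plates, lung cancer cell lines were treated by pin tool with a single drug, or with a fixed anchor-drug dose together with five library-drug doses (not always all listed) in √10 steps. After 5 days, a combined fix-and-stain solution (final 0.05% Triton X-100, 1% formaldehyde, 1 ug/ml Hoechst) was added. Nuclei counted on 4× images gave relative viability as treated counts over vehicle counts, reported as the median of duplicate plates.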
# [2] = system: EKVX
# Procedure, shortened: as §1
# [3] = system: HARA
# Procedure, shortened: as §1
# [4] = system: HCC-366
# Procedure, shortened: as §1
# [5] = system: HCC-44
# Procedure, shortened: as §1
# [6] = system: HCC-827
# Procedure, shortened: as §1
# [7] = system: LC-2-ad
# Procedure, shortened: as §1
# [8] = system: LOU-NH91
# Procedure, shortened: as §1
# [9] = system: NCI-H1355
# Procedure, shortened: as §1
# [10] = system: NCI-H1395
# Procedure, shortened: as §1
# [11] = system: NCI-H1437
# Procedure, shortened: as §1
# [12] = system: NCI-H1734
# Procedure, shortened: as §1
# [13] = system: NCI-H1792
# Procedure, shortened: as §1
# [14] = system: NCI-H2009
# Procedure, shortened: as §1
# [15] = system: NCI-H2087
# Procedure, shortened: as §1
# [16] = system: NCI-H2170
# Procedure, shortened: as §1
# [17] = system: NCI-H2228
# Procedure, shortened: as §1
# [18] = system: NCI-H2405
# Procedure, shortened: as §1
# [19] = system: NCI-H596
# Procedure, shortened: as §1
# [20] = system: NCI-H647
# Procedure, shortened: as §1
# [21] = system: NCI-H661
# Procedure, shortened: as §1
# [22] = system: SK-LU-1
# Procedure, shortened: as §1
# [23] = system: SK-MES-1
# Procedure, shortened: as §1
smiles,measurement,setting,value
Clc1ccc(Nc2nnc(Cc3ccncc3)c3ccccc23)cc1 [Vatalanib] + Cc1nc(NC(=O)N2CCC[C@H]2C(N)=O)sc1-c1ccnc(C(C)(C)C(F)(F)F)c1 [Alpelisib] (partner 2 µM),relative viability,[1]; first compound 0.04 µM,1.05
same,relative viability,[1]; first compound 0.1265 µM,0.945
same,relative viability,[1]; first compound 0.4 µM,1.09
same,relative viability,[1]; first compound 1.265 µM,1.18
same,relative viability,[1]; first compound 4 µM,1.04
same,relative viability,[2]; first compound 0.04 µM,0.939
same,relative viability,[2]; first compound 0.1265 µM,0.821
same,relative viability,[2]; first compound 0.4 µM,0.824
same,relative viability,[2]; first compound 1.265 µM,0.829
same,relative viability,[2]; first compound 4 µM,0.785
same,relative viability,[3]; first compound 0.04 µM,0.738
same,relative viability,[3]; first compound 0.1265 µM,0.869
same,relative viability,[3]; first compound 0.4 µM,0.761
same,relative viability,[3]; first compound 1.265 µM,0.831
same,relative viability,[3]; first compound 4 µM,0.808
same,relative viability,[4]; first compound 0.04 µM,0.388
same,relative viability,[4]; first compound 0.1265 µM,0.346
same,relative viability,[4]; first compound 0.4 µM,0.461
same,relative viability,[4]; first compound 1.265 µM,0.33
same,relative viability,[4]; first compound 4 µM,0.396
same,relative viability,[5]; first compound 0.04 µM,0.803
same,relative viability,[5]; first compound 0.1265 µM,0.815
same,relative viability,[5]; first compound 0.4 µM,0.777
same,relative viability,[5]; first compound 1.265 µM,0.81
same,relative viability,[5]; first compound 4 µM,0.745
same,relative viability,[6]; first compound 0.04 µM,0.991
same,relative viability,[6]; first compound 0.1265 µM,1.01
same,relative viability,[6]; first compound 0.4 µM,0.828
same,relative viability,[6]; first compound 1.265 µM,1
same,relative viability,[6]; first compound 4 µM,0.786
same,relative viability,[7]; first compound 0.04 µM,0.86
same,relative viability,[7]; first compound 0.1265 µM,0.847
same,relative viability,[7]; first compound 0.4 µM,0.988
same,relative viability,[7]; first compound 1.265 µM,0.825
same,relative viability,[7]; first compound 4 µM,0.867
same,relative viability,[8]; first compound 0.04 µM,0.75
same,relative viability,[8]; first compound 0.1265 µM,0.702
same,relative viability,[8]; first compound 0.4 µM,0.595
same,relative viability,[8]; first compound 1.265 µM,0.704
same,relative viability,[8]; first compound 4 µM,0.732
same,relative viability,[9]; first compound 0.04 µM,0.821
same,relative viability,[9]; first compound 0.1265 µM,0.747
same,relative viability,[9]; first compound 0.4 µM,0.87
same,relative viability,[9]; first compound 1.265 µM,0.691
same,relative viability,[9]; first compound 4 µM,0.711
same,relative viability,[10]; first compound 0.04 µM,1.08
same,relative viability,[10]; first compound 0.1265 µM,1.04
same,relative viability,[10]; first compound 0.4 µM,1.19
same,relative viability,[10]; first compound 1.265 µM,1.08
same,relative viability,[10]; first compound 4 µM,0.971
same,relative viability,[11]; first compound 0.04 µM,0.975
same,relative viability,[11]; first compound 0.1265 µM,1
same,relative viability,[11]; first compound 0.4 µM,0.997
same,relative viability,[11]; first compound 1.265 µM,1.04
same,relative viability,[11]; first compound 4 µM,0.991
same,relative viability,[12]; first compound 0.04 µM,0.747
same,relative viability,[12]; first compound 0.1265 µM,0.684
same,relative viability,[12]; first compound 0.4 µM,0.743
same,relative viability,[12]; first compound 1.265 µM,0.685
same,relative viability,[12]; first compound 4 µM,0.689
same,relative viability,[13]; first compound 0.04 µM,0.669
same,relative viability,[13]; first compound 0.1265 µM,0.741
same,relative viability,[13]; first compound 0.4 µM,0.639
same,relative viability,[13]; first compound 1.265 µM,0.677
same,relative viability,[13]; first compound 4 µM,0.73
same,relative viability,[14]; first compound 0.04 µM,1.14
same,relative viability,[14]; first compound 0.1265 µM,1.07
same,relative viability,[14]; first compound 0.4 µM,1.2
same,relative viability,[14]; first compound 1.265 µM,1.13
same,relative viability,[14]; first compound 4 µM,1.22
same,relative viability,[15]; first compound 0.04 µM,1.1
same,relative viability,[15]; first compound 0.1265 µM,0.96
same,relative viability,[15]; first compound 0.4 µM,1.3
same,relative viability,[15]; first compound 1.265 µM,0.964
same,relative viability,[15]; first compound 4 µM,1.1
same,relative viability,[16]; first compound 0.04 µM,0.86
same,relative viability,[16]; first compound 0.1265 µM,0.777
same,relative viability,[16]; first compound 0.4 µM,0.861
same,relative viability,[16]; first compound 1.265 µM,0.81
same,relative viability,[16]; first compound 4 µM,0.811
same,relative viability,[17]; first compound 0.04 µM,0.691
same,relative viability,[17]; first compound 0.1265 µM,0.728
same,relative viability,[17]; first compound 0.4 µM,0.867
same,relative viability,[17]; first compound 1.265 µM,0.713
same,relative viability,[17]; first compound 4 µM,0.637
same,relative viability,[18]; first compound 0.04 µM,0.959
same,relative viability,[18]; first compound 0.1265 µM,0.769
same,relative viability,[18]; first compound 1.265 µM,0.795
same,relative viability,[18]; first compound 4 µM,0.773
same,relative viability,[19]; first compound 0.04 µM,0.503
same,relative viability,[19]; first compound 0.1265 µM,0.499
same,relative viability,[19]; first compound 0.4 µM,0.498
same,relative viability,[19]; first compound 1.265 µM,0.53
same,relative viability,[19]; first compound 4 µM,0.511
same,relative viability,[20]; first compound 0.04 µM,1.11
same,relative viability,[20]; first compound 0.1265 µM,1.05
same,relative viability,[20]; first compound 0.4 µM,1.19
same,relative viability,[20]; first compound 1.265 µM,1.1
same,relative viability,[20]; first compound 4 µM,1.05
same,relative viability,[21]; first compound 0.04 µM,0.617
same,relative viability,[21]; first compound 0.1265 µM,0.557
same,relative viability,[21]; first compound 0.4 µM,0.717
same,relative viability,[21]; first compound 1.265 µM,0.653
same,relative viability,[21]; first compound 4 µM,0.519
same,relative viability,[22]; first compound 0.04 µM,1.09
same,relative viability,[22]; first compound 0.1265 µM,0.983
same,relative viability,[22]; first compound 0.4 µM,1.31
same,relative viability,[22]; first compound 1.265 µM,1.02
same,relative viability,[22]; first compound 4 µM,1.04
same,relative viability,[23]; first compound 0.04 µM,1.11
same,relative viability,[23]; first compound 0.1265 µM,0.849
same,relative viability,[23]; first compound 0.4 µM,0.912
same,relative viability,[23]; first compound 1.265 µM,0.807
same,relative viability,[23]; first compound 4 µM,0.868
